{"source": "patent US20220062391A1", "about": "“ENHANCING EPITHELIAL OR ENDOTHELIAL BARRIER FUNCTION” (UNIVERSITY OF ROCHESTER, priority 2019, published 2022)", "key": {"[1]": {"tested_on": "ATI cells", "assay": "TEER of alveolar epithelial monolayers on transwell plates", "type": "cell-based, rat", "method": "Primary rat alveolar epithelial type II cells were isolated using an IgG-panning approach as described by Dobbs (74). Briefly, lungs from Sprague Dawley rats (200-250 g) were surgically removed and perfused, lavaged, and treated with 1 mg/ml of elastase (WORTHINGTON BIOCHEMICAL, Lakewood, N.J.) to release the epithelial cells. Next, lung lobes were separated, cut, minced, filtered and spin down at 1500 rpm for 15 minutes. The cells were resuspended with DMEM without FBS and transferred into two IgG plates. After incubation at 37° C. for one hour, non-adhered cells (predominately ATII cells) were transferred to a new tube and centrifuged at 1500 rpm for 15 minutes. The cells were resuspended in DMEM containing 10% FBS and plated on fibronectin coated plates. To coat the plates with fibronectin, 20 μg/ml of fibronectin from bovine plasma (F1141, SIGMA-ALDRICH, St. Louis, Mo.) was added to 100 mm culture plates (using 3 ml) or the upper chamber of the transwell plates (using 400 μl). Plates were left at 37° C. for 3 hours. Residual solution was removed, and plates were dried in a tissue culture hood for at least 30 minutes before cells were added. 16HBE14o-human bronchial epithelial cells were cultured in Dulbecco's modified Eagle's medium as previously reported (18).\nPrior to the assay, cells cultured on 12-well transwell plates (12 mm transwell with 0.4 μm pore polyester membrane insert; CORNING, Corning, N.Y.) were moved to the tissue culture hood for 15 minutes to allow the medium equilibrate to room temperature. TEER was measured using an epithelial voltmeter (EVOM2; WORLD PRECISION INSTRUMENTS, Sarasota, Fla.). Three readings were recorded and averaged for each well. To calculate TEER, the resistance of the fibronectin-coated insert without cells (blank resistance) was subtracted from the measured resistance, then multiplied by 1.12 cm^2 to account for the surface area of the insert."}, "[2]": {"tested_on": "ATI cells", "assay": "Western blot of tight junction proteins in transfected ATI cells", "type": "cell-based, rat", "conditions": "24 hours", "method": "(§1) Primary rat alveolar epithelial type II cells were isolated using an IgG-panning approach as described by Dobbs (74). Briefly, lungs from Sprague Dawley rats (200-250 g) were surgically removed and perfused, lavaged, and treated with 1 mg/ml of elastase (WORTHINGTON BIOCHEMICAL, Lakewood, N.J.) to release the epithelial cells. Next, lung lobes were separated, cut, minced, filtered and spin down at 1500 rpm for 15 minutes. The cells were resuspended with DMEM without FBS and transferred into two IgG plates. After incubation at 37° C. for one hour, non-adhered cells (predominately ATII cells) were transferred to a new tube and centrifuged at 1500 rpm for 15 minutes. The cells were resuspended in DMEM containing 10% FBS and plated on fibronectin coated plates. […]\n(§2) Cells were lysed with reporter lysis buffer (lx, PROMEGA), supplemented with protease inhibitor (COMPLETE, Mini, EDTA-free tablets; ROCHE, Basel, Switzerland) and phosphatase inhibitor (PHOSSTOP Phosphatase Inhibitor Cocktail; ROCHE, Basel, Switzerland). […] After incubation with secondary antibody and development, bands were detected on film (BIOMAX MR film; […] HEALTH, Rochester, N.Y.) or using the CHEMIDOC IMAGING SYSTEM (BIO-RAD, Hercules, Calif.) and quantified using the IMAGE STUDIO™ LITE software (LI-COR, Lincoln, Nebr.) or the IMAGE LAB SOFTWARE (BIO-RAD, Hercules, Calif.)."}, "[3]": {"tested_on": "16HBE14o-cells", "assay": "Doxycycline-inducible β1 expression, immunoblot in 16HBE14o- cells", "type": "cell-based, human", "conditions": "24 hours post transfection", "method": "as §1, with “minutes.” for “minutes. The cells were resuspended in DMEM containing 10% FBS and plated on fibronectin coated plates.”\nas §2\nGiven that the β1 subunit increased protein expressions of tight junctions in ATI cells, their localization in these cells was analyzed. […]"}, "[4]": {"tested_on": "mouse lungs", "assay": "Alveolar fluid clearance (AFC) in live mice", "type": "in vivo", "conditions": "two days after gene transfer, or 10^−8 mol/L in the instillation solution", "method": "(§3) Male C57BL/6 mice (9-11 weeks) were anesthetized with isoflurane and 100 μg of each individual plasmid were delivered in 50 μl of 10 mM Tris-HCl (pH 8.0), 1 mM EDTA, and 140 mM NaCl, to mouse lungs by aspiration (when both β1 and MRCKα were delivered, 100 μg of each were administered prior to electroporation) as previously described in Lin, X., et al., Gene Ther 23: 489-99. Eight, 10 msec square wave pulses at a field strength of 200 V/cm were immediately applied using cutaneous electrophysiology electrodes (MEDTRONIC, Redmond, Wash.) placed on the mouse chest with an ECM830 electroporator (BTX, HARVARD […], Holliston, Mass.). […]\nThe method used in this study was performed in live mice as previously described in Lin, X., et al., Gene Ther 23: 489-99 and Mutlu, G. M., et al., Circ Res 94: 1091-100. […] Protein concentration in the aspirate was assessed using a Bradford assay (BIO-RAD LABORATORIES, Hercules, Calif.) and AFC was calculated using following equation: AFC=1−(C0/C30), where C0, is the protein concentration of the instillate before instillation, and C30 is the protein concentration of the sample obtained at the end of 30 minutes of mechanical ventilation. Clearance is expressed as a percentage of total instilled volume cleared/30 minutes. […]"}, "[5]": {"tested_on": "ATI cells", "assay": "Permeability to fluorescent dextran tracers", "type": "cell-based, rat", "conditions": "1 μg/ml", "method": "Permeability to fluorescent tracers was measured using a modified protocol previous described (76). […] Five hundred microliters of freshly prepared solution containing 100 μg/mL of 40 kD FITC-dextran and 100 μg/mL of 31(D Texas Red-dextran were added to the apical compartment. One thousand microliters of P buffer was added to the bottom chamber. After 2 hours incubation at 37° C., 100 μl of the basal medium was collected and the fluorescence of the transported dextran was measured with a SPECTRAMAX M5 multi-mode microplate reader (MOLECULAR DEVICES, San Jose, Calif.). The excitation wavelength and emission wavelength are 492 nm and 520 nm for FITC and 596 nm and 615 nm for Texas-red, respectively. The quantity of tracer was calculated by comparison with a standard curve. A permeability coefficient was determined using the following equation (77): Pc (cm/min)=V/(A×Co)×(C/T) where V is volume in the lower compartment (1 ml), A is the surface area of the membrane (1.12 cm^2 for the 12-well transwell used here), Co is the dextran concentration in the upper compartment at time 0 (0.1 mg/ml), and C is the dextran concentration in the lower compartment at time T of sampling (2 hours)."}, "[6]": {"tested_on": "LPS-injured lungs", "assay": "Western blot of occludin and ZO-1 in mouse lungs", "type": "in vivo", "conditions": "LPS 5 mg/kg", "method": "as §3, with “Mass.). All LPS-challenged mice received 5 mg/kg of LPS (Escherichia coli 055:B5, 15,000,000 endotoxin units/mg protein; SIGMA-ALDRICH, St. Louis, Mo.) in 50 μl of phosphate-buffered saline (PBS) by aspiration, one day before gene transfer (n=5-11 mice/group).” for “Mass.).”\nWestern blots were performed as previously described in Lin, X., et al. Am J Respir Crit Care Med 183: 1689-97. […] After incubation with secondary antibody and development, bands were detected using the CHEMIDOC Imaging System (BIO-RAD, Hercules, Calif.) and quantified using the IMAGE STUDIO™ LITE software (LI-COR, Lincoln, Nebr.) or the IMAGE LAB software (BIO-RAD, Hercules, Calif.)."}, "[7]": {"tested_on": "LPS-injured lungs", "assay": "Pulmonary permeability by Evan's blue dye leakage", "type": "in vivo, mouse", "conditions": "LPS 5 mg/kg intratracheal, compared with naïve mice", "method": "as §3, with “Mass.). All LPS-challenged mice received 5 mg/kg of LPS (Escherichia coli 055:B5, 15,000,000 endotoxin units/mg protein; SIGMA-ALDRICH, St. Louis, Mo.) in 50 μl of phosphate-buffered saline (PBS) by aspiration, one day before gene transfer (n=5-11 mice/group).” for “Mass.).”\nPulmonary permeability was measured by Evan's blue dye (EBD) leakage from blood into airways (Baluk, P., et al., Br J Pharmacol 126: 522-8 and Mammoto, A., et al., Nat Commun 4: 1759). […] 24 hrs later, EBD was extracted in formamide (FISHER […]) at 37° C. for 24 hrs and quantified by measuring spectrophotometrically at 620 nm and 740 nm, correcting by using formula E620 (EBD)=E620−(1.426×E740+0.030) (Standiford, T. J., et al., J Immunol 155: 1515-24)."}, "[8]": {"biological_target": "MRCKα of primary rat alveolar type I (ATI) cells (rat) (UniProt O54874)", "sequence (O54874 whole entry)": "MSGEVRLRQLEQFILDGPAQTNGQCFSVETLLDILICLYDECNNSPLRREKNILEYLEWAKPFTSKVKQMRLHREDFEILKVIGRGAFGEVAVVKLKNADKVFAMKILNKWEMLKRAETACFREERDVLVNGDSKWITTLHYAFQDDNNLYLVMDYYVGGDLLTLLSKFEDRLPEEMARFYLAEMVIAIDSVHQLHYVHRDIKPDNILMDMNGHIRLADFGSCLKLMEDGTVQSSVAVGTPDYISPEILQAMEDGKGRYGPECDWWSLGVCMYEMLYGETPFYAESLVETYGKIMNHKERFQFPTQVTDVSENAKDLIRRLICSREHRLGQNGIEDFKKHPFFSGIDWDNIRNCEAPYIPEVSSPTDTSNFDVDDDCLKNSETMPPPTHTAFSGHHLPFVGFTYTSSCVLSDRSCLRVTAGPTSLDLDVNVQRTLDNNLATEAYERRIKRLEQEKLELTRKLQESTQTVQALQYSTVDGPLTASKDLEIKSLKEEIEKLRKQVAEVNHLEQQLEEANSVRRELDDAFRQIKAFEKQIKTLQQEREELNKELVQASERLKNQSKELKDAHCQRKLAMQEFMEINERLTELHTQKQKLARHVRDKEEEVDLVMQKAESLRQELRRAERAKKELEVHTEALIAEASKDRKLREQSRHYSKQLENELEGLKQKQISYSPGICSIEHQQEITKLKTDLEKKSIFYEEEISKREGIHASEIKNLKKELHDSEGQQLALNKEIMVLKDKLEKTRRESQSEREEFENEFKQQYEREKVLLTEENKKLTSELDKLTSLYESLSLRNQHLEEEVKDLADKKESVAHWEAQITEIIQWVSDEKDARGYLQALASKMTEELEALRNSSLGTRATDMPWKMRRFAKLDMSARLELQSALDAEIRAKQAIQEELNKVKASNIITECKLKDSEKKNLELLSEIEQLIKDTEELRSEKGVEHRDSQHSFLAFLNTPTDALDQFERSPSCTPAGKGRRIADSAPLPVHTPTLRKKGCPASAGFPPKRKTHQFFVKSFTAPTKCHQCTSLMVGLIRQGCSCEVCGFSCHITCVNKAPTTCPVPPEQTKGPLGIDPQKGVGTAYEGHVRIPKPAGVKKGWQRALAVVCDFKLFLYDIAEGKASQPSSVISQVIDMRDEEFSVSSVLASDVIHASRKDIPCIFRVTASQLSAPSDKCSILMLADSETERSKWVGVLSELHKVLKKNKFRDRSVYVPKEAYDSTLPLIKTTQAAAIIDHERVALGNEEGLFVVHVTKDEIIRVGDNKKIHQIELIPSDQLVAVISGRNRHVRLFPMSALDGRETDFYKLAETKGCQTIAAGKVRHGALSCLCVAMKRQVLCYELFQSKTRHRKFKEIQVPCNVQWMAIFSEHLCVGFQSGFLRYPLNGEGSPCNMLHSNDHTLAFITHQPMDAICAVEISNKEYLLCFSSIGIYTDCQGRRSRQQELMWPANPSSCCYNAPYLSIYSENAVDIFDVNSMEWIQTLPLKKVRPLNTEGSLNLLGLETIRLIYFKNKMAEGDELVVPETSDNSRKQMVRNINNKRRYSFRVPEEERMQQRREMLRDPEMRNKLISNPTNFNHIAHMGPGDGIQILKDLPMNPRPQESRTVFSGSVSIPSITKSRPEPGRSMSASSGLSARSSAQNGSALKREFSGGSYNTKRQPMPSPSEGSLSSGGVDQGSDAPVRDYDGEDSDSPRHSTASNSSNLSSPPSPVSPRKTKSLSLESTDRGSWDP", "assay": "cell-based or functional assay"}}}
{"molecule": "O=C(Nc1cn[nH]c1-c1ccccn1)c1nn(C2CCNCC2)cc1Cl", "note": "[BDP5290]", "values": [{"measurement": "baseline TEER", "setting": "[1]; 2 μM inhibitor", "value": "decreased"}, {"measurement": "β1 subunit-induced increase of barrier integrity (TEER) under MRCKα inhibition", "setting": "[1]; 2 μM inhibitor", "value": "prevented β1 subunit-induced increase of barrier integrity"}]}
{"molecule": "Cc1ccc2c(c1)C(=O)C1(O)CCN(c3ccccc3)C1=N2", "note": "(stereo not drawn) [blebbistatin]", "values": [{"measurement": "β1-induced upregulation of occludin in presence of blebbistatin", "setting": "[2]; ATI cells transfected with rat β1, blebbistatin 1, 10 or 100 uM", "value": "significantly suppress the upregulation of occludin"}, {"measurement": "β1-induced increase in TEER under myosin II inhibition", "setting": "[1]; pretreatment 20 μM", "value": "prevented the increase in TEER"}]}
{"molecule": "C[C@H]1c2cccc(O)c2C(=O)C2=C(O)[C@]3(O)C(=O)C(C(N)=O)=C(O)[C@@H](N(C)C)[C@@H]3[C@@H](O)[C@@H]21", "note": "[doxycycline]", "values": [{"measurement": "doxycycline concentration of maximum induction of β1 subunit", "setting": "[3]", "value": 1000, "unit": "ng/mL"}]}
{"molecule": "C[C@@H]1O[C@@H](O[C@H]2C[C@@H](O)[C@]3(CO)[C@H]4[C@H](O)C[C@]5(C)[C@@H](C6=CC(=O)OC6)CC[C@]5(O)[C@@H]4CC[C@]3(O)C2)[C@H](O)[C@H](O)[C@H]1O", "note": "[ouabain]", "values": [{"measurement": "β1-induced upregulation of occludin in presence of ouabain", "setting": "[2]; ATI cells transfected with rat β1, ouabain 10 nM, 100 nM or 1000 nM", "value": "did not block the upregulation of occludin"}]}
{"molecule": "CCC(NC(C)C)C(O)c1ccc(O)c2[nH]c(=O)ccc12", "note": "(stereo not drawn) [procaterol, Procaterol]", "values": [{"measurement": "increase of AFC", "setting": "[4]", "value": 145, "unit": "%"}]}
{"molecule": "lipopolysaccharide", "values": [{"measurement": "TEER after lipopolysaccharide", "setting": "[1]; 1 μg/ml, 24 hours", "value": "decreased TEER"}, {"measurement": "permeability to 4 kD Dextran after lipopolysaccharide", "setting": "[5]", "value": "increased permeability"}, {"measurement": "levels of ZO-1 and occludin in lungs after LPS injury", "setting": "[6]", "value": "reduced levels"}, {"measurement": "increase of pulmonary leakage in response to LPS", "setting": "[7]", "value": "three- to four-fold"}]}
{"molecule": "rat Na+, K+-ATPase β1 subunit (from UniProt P07340 1-304)", "values": [{"measurement": "phosphorylation of myosin light chain 2 (MLC2) at Ser19, western blot after β1 subunit overexpression in ATI cells", "setting": "[8]", "value": 2, "unit": "fold"}]}
